“Also recorded” adds a separate entry of the source.
How the values were obtained:
[1] = Ocular toxicokinetics of TA after suprachoroidal or intravitreal injection (Example 8); type: in vivo, pigmented rabbits; conditions: SCS, 2 mg TA, compared with intravitreal
Protocol: in this study, the total amount of triamcinolone acetonide (TA) delivered into live pigmented rabbit eyes when injected, into the suprachoroidal space using a hollow microneedle or into the vitreous using a standard 30 gauge needle was compared.
On Day 0, pigmented rabbits were injected with either intravitreal or bilateral suprachoroidal injections of 2 mg/100 μl TA Triesence® (TA; Alcon Labs). intravitreal injections were performed using a 30 g needle (Becton-Dickinson) and suprachoroidal injections were performed using a 33 g 750 μm microneedle. The residual amount of TA present in the syringe/needle assembly after injection was determined by RP-HPLC. Clinical observations, slit lamp biomicroscopy with McDonald-Shadduck scoring, intraocular pressure assessment (IOP), electroretinography (ERG), and systemic exposure were assessed up to 120 days post-dose. Animals were sacrificed at 30 minutes, 7 days, 30 days, 60 days, and 120 days for macroscopic observations, ocular toxicokinetics, and ocular histopathology.

[2] = tested on: LPS-induced acute posterior uveitis; experiment: Wide-field ocular fundus digital photography in porcine uveitis study (Example 13); type: in vivo, domestic weanling pigs; conditions: 3 days after treatment
Source text: On study days −1, 0 and 3, with the animals anesthetized arid pupils dilated with tropicamide 1%, the ocular fundus was photographed using standardized illumination and focus by a wide-field digital imaging system (Retcam II, Clarity Medical Systems, Pleasanton, Calif.).

[3] = Plasma and ocular matrix toxicokinetics after SCS TA, LC-MS/MS (Example 9); type: in vivo, New Zealand White rabbit
Protocol: (§1) On Day 0, New Zealand White (NZW) rabbits were administered a single bilateral supraehoroidal injection of vehicle, 3.2 mg (80 μL) or 5.2 mg (130 μL) of TA (Triesence®, Alcoa labs) using a 33 g 750 μm microneedle. Clinical observations, slit lamp biomicroscopy with McDonald-Shadduck scoring, intraocular pressure assessment (IOP), electroretinography (ERG), and systemic exposure were assessed up to 26 weeks post-dose. Animals were sacrificed on Day 1, Week 13, and Week 26 for macroscopic observations, ocular toxicokinetics, and ocular histopathology.
Plasma and oct lar matrixes (aqueous humor (AH), lens, iris/ciliary body (ICB), vitreous humor (VH), sclera/choroid (SC), and retina) were sampled on Days 1, 14, 28, and 60. Plasma (LLOQ 0.5 ng/mL) and ocular matrixes (LLOQ 2-15 ng/mL) were analyzed using LC-MS/MS, and resulting data were assessed for noncompartmental PK parameters. Systemic exposure to TA was minimal (FIG. 20C).

[4] = Intraocular pressure after SCS TA (Example 9); type: in vivo, New Zealand White rabbit; conditions: 3.2 or 5.2 mg TA SCS
Protocol: (§2) In this study, the ocular tolerability and toxicokinetics of suprachoroidal administration of triamcinolone acetonide (TA) using a microneedle in a GLP study in the New Zealand White rabbit.
as §1

[5] = tested on: LPS-induced acute posterior uveitis; experiment: Ocular histopathology and histologic inflammatory scores in porcine uveitis study (Example 13); type: in vivo
Protocol: Pigs were euthanized on study day 3 after clinical scoring, OCT, ERG, and wide-field ocular fundus photography was completed. After euthanasia with an overdose of intravenous barbiturate, both eyes were removed, Aqueous humor (All) was aspirated and a 1 mL sample of vitreous humor (VH) was collected from each eye immediately after euthanasia. The globe was then fixed in Davidson's solution for 24 hours, followed by alcohol. Central, saggital sections of each globe, including the optic nerve, were stained with hematoxylin and eosin and examined by light microscopy. Two pathology-trained observers, masked to the study groups, graded degree of inflammatory infiltrate of the ocular anterior and posterior segments. The grading scale for the anterior and posterior ocular segment used was as follows: 0=no evidence of cellular infiltrate; 1=a few cells infiltrated (mild)−focal; 2=a few cells infiltrated (mild)−diffuse; 3=moderate number of cells infiltrated; and 4=high amount of cellular infiltrate.
Differences were considered significant at P<0.05.

[6] = tested on: model of acute posterior uveitis; experiment: Porcine model of acute posterior uveitis, Hackett/McDonald scoring (Example 12); type: in vivo, pigs
Protocol: In this study, the effects of microneedle injection of triamcinolone acetonide (TA) into the suprachoroidal space (SCS) were compared to the effects of intravitreal (IVT) TA injection in a model of acute posterior uveitis.
Ten weanling pigs had IVT injection with BSS or lipopolysaccharide (LPS) followed 24 hours later with an injection of 0.2 mg or 2.0 mg of TA into the SCS or by IVT. The SCS was accessed using hollow microneedles provided herein. A measurement of each eye under the Hackett/McDonald scoring system was performed on −1, 0, and 3 days after treatment. Pigs were then euthanized, aqueous and vitreous humor collected for cell counts and protein levels, and the eyes were processed for histopathology.

[7] = Ocular histopathology after SCS TA (Example 9); type: in vivo, New Zealand White rabbit
Protocol: as §2, §1

[8] = Group 3: LPS intravitreal/low dose (0.2 mg) TA SCS
[9] = Group 4: LPS intravitreal/high dose (2.0 mg) TA SCS
[10] = Group 5: LPS intravitreal/low dose (0.2 mg) TA IVT
[11] = Group 6 (printed: LPS intravitreal/high dose TA SCS)

For `CC1(C)O[C@@H]2C[C@H]3[C@@H]4CCC5=CC(=O)C=C[C@]5(C)[C@@]4(F)[C@@H](O)C[C@]3(C)[C@]2(C(=O)CO)O1` [TA, triamcinolone acetonide], the “ratio of TA Lens:Chroroid and Lens:Retina” value [1] was “much lower”, the “ocular fundus images (vitreal cloudiness)” value (“ocular fundus images” below) ([2]; 0.2 mg TA IVT) was “only slightly improved over vehicle treated eyes” and the “ocular fundus images” value ([2]; 0.2 mg TA SCS) was “less vitreal cloudiness and similar to the pre-treatment fundus appearance; also recorded: near pre-treatment appearance”. For the same compound, the “ocular fundus images” value ([2]; 2.0 mg TA IVT) was “less vitreal cloudiness and similar to the pre-treatment fundus appearance; also recorded: near pre-treatment appearance”, the “ocular fundus images” value ([2]; 2.0 mg TA SCS) was “less vitreal cloudiness and similar to the pre-treatment fundus appearance; also recorded: near pre-treatment appearance” and the “systemic exposure to TA” value ([3]; 3.2 or 5.2 mg TA SCS, plasma) was “minimal”. For the same compound, the “difference between TA levels in sclera/choroid and in the vitreous” value ([3]; SCS TA) was 6 orders of magnitude, the “amount of TA retained in the retina, high dose vs low dose” value ([3]; by day 15, SCS) was “did not significantly differ” and the “amount of TA retained in the sclera/choroid, high dose vs low dose” value ([3]; by day 30, SCS) was “did not significantly differ”. The “order of TA in ocular matrixes (decreasing)” value ([3]; following SCS TA) was “SC>retina>ICB>VH>lens>AU”, the “sclera/choroid tissue concentration of TA” value ([3]; for longer than 28 days after a single SCS dose) was “greater than 100 μg/g tissue” and the “TA peak concentration in plasma” value ([3]; peaked on Day 1, both the high and low TA dose groups (5.2 and 3.2 mg SCS)) was “around 12 nglint”. The “effect on IOP” value [4] was “No effect”, the “inflammation or histologic evidence of toxicity in the SCS” value ([5]; 2.0 mg TA SCS (Group 4)) was “no inflammation or histologic evidence of toxicity in the SCS” and the “histopathology, inner retinal layers and vitreous” value [5, 8] was “moderate infiltrate of neutrophils”. For the same compound, the “histopathology, iris” value [5, 8] was “mild neutrophilic infiltrate”, the “histopathology, anterior segment” value [5, 9] was “normal” and the “histopathology, vitreous” value [5, 9] was “very mild neutrophilic infiltration”. For the same compound, the “mean histologic inflammatory scores in the ocular posterior segment compared with Groups 2, 5 and 6” value ([5]; Group 4: high dose TA SCS) was “significantly lower”, the “histopathology, anterior uvea” value [5, 10] was “mild neurophilic infiltrate” and the “histopathology, vitreous” value [5, 10] was “moderate to severe cellular infiltrate”. For the same compound, the “mean histologic inflammatory scores in the anterior segment compared with Groups 4 and 6” value ([5]; Group 5: low dose TA IVT) was “significantly higher”, the “histopathology, anterior uvea” value [5, 11] was “mild neutrophilic infiltrate” and the “histopathology, vitreous” value [5, 11] was “moderate vitreal infiltrates”. For the same compound, the “mean histologic inflammatory scores compared with vehicle treated eyes (Group 2)” value ([5]; Group 6: high dose IVT TA) was “significantly lower”, the “tissue structural or toxicologic changes on histopathology” value ([5]; all groups, 0.2 or 2.0 mg TA SCS or IVT) was “None of the eyes examined in any group had evidence of substantial tissue structural or toxicologic changes” and the “dose of TA administered to the SCS giving a reduction in inflammation within 3 days, as share of the dose required intravitreally” value ([6]; 0.2 mg SCS vs 2 mg IVT) was 10%. For the same compound, the “inflammatory response (mean Hackett/McDonald ocular scores)” value ([6]; 2 mg TA SCS after LPS, vs vehicle) was “significant reduction; also recorded: significantly reduces”, the “adverse effects related to the method of administration or treatments, as assessed by histopathology” value ([7]; 3.2 or 5.2 mg TA SCS) was “no adverse effects” and the “inflammatory cells and test article in the suprachoroidal space (histopathology)” value ([7]; 3.2 or 5.2 mg TA SCS) was “observed in the suprachoroidal space of TA-treated animals on Day 1 but not Week 13”. For the same compound, the “Ciliary process edema, animals with finding” value (“Ciliary process edema, animals” below) ([7]; Day 1, 3.2 mg TA/eye SCS, F) was 4, the “Corneal epithelial thinning, animals with finding” value (from here on “Corneal epithelial thinning”) ([7]; Day 1, 3.2 mg TA/eye SCS, F) was 2 and the “Inflammatory cells in SCS, animals with finding” value (“Inflammatory cells in SCS” for short) ([7]; Day 1, 3.2 mg TA/eye SCS, F) was 4. The “TA in SCS, animals with finding” value ([7]; Day 1, 3.2 mg TA/eye SCS, F) was 5, the “Ciliary process edema, animals” value ([7]; Day 1, 3.2 mg TA/eye SCS, M) was 4 and the “Conjunctival subepithelial inflammatory cells, animals with finding” value ([7]; Day 1, 3.2 mg TA/eye SCS, M) was 3. The “Corneal epithelial thinning” value ([7]; Day 1, 3.2 mg TA/eye SCS, M) was 3, the “Inflammatory cells in SCS” value ([7]; Day 1, 3.2 mg TA/eye SCS, M) was 5 and the “TA in SCS, animals with finding” value ([7]; Day 1, 3.2 mg TA/eye SCS, M) was 5. The “Ciliary process edema, animals” value ([7]; Day 1, 5.2 mg TA/eye SCS, F) was 5, the “Conjunctival subepithelial inflammatory cells, animals with finding” value ([7]; Day 1, 5.2 mg TA/eye SCS, F) was 3 and the “Corneal epithelial thinning” value ([7]; Day 1, 5.2 mg TA/eye SCS, F) was 1. For the same compound, the “Inflammatory cells in SCS” value ([7]; Day 1, 5.2 mg TA/eye SCS, F) was 5, the “Small area of retinal damage (attributed to needle insertion), animals with finding” value ([7]; Day 1, 5.2 mg TA/eye SCS, F) was 1 and the “TA in SCS, animals with finding” value ([7]; Day 1, 5.2 mg TA/eye SCS, F) was 5. For the same compound, the “Ciliary process edema, animals” value ([7]; Day 1, 5.2 mg TA/eye SCS, M) was 4, the “Conjunctival subepithelial inflammatory cells, animals with finding” value ([7]; Day 1, 5.2 mg TA/eye SCS, M) was 2 and the “Corneal epithelial thinning” value ([7]; Day 1, 5.2 mg TA/eye SCS, M) was 3. The “Inflammatory cells in SCS” value ([7]; Day 1, 5.2 mg TA/eye SCS, M) was 5, the “TA in SCS, animals with finding” value ([7]; Day 1, 5.2 mg TA/eye SCS, M) was 4 and the “Ciliary process edema, animals” value ([7]; Week 13, 3.2 mg TA/eye SCS, F) was 1. For the same compound, the “Dilated choroidal vessels, animals with finding” value ([7]; Week 13, 3.2 mg TA/eye SCS, F) was 1, the “Small area of retinal damage (attributed to needle insertion), animals with finding” value ([7]; Week 13, 3.2 mg TA/eye SCS, F) was 1 and the “Ciliary process edema, animals” value ([7]; Week 13, 3.2 mg TA/eye SCS, M) was 3. The “Ciliary process edema, animals” value ([7]; Week 13, 5.2 mg TA/eye SCS, F) was 3, the “Ciliary process edema, animals” value ([7]; Week 13, 5.2 mg TA/eye SCS, M) was 1 and the “Dilated choroidal vessels, animals with finding” value ([7]; Week 13, 5.2 mg TA/eye SCS, M) was 1.
